Test results reported in patent publication US4956367A, “2-amino-4-morpholino-6-propyl-1,3,5-triazines” (U C B S.A., priority 1988, dated 1990).
Where two headings read alike, the source gives them in different places.

Columns and labels:
[1] = Toxicity (Irwin's test); format: in vivo
Procedure: Progressive doses of the compound to be tested are administered intraperitoneally to groups of three mice until the lethal dose is reached (dose which causes the death of two animals out of three within 48 hours).

[2] = tested on: effects of scopolamine on the band from 6.4 to 9.6 Hz in the EEG; experiment: Inhibition of the effects of scopolamine on the electroencephalogram (EEG); format: in vivo, male albino Sprague-Dawley rats; parameters: inhibition: dose or concentration left out as unconfirmed
Procedure: Male albino Sprague-Dawley SPF rats (160 to 200 g) are used in this test. When the animals are 3 months old, 5 cortical electrodes are implanted permanently, aseptically and under a general anesthesia: one inert electrode, one left and one right frontal electrode, and one left and one right occipital electrode (P. ETEVENON, loc.cit.). The test is carried out when the animals are about 15 months old. In the meantime, the animals are kept in individual cages. They are given water and food ad libitum and are subjected to a regular daily cycle comprising a period of darkness between 6 o'clock in the evening and 6 o'clock in the morning. At the same time, the animals are progressively acclimatized to the cages of the sound-proof cabin which they will subsequently occupy for recording of the electroencephalograms, as well as to the experimental conditions, by intraperitoneal administration of placebo. The products are administered immediately before the EEG is recorded. The rats are divided into groups of 8 animals and 16 samples of the EEG spectra are recorded over 5 seconds (two EEG spectra per animal). The spectra obtained are then analyzed by computer (rapid Fourier transform), which enables the average of the 16 measurements performed to be determined for each group and the overall intensity of the EEG spectrum and the distribution of this intensity (in %) in the various frequency bands to be deduced for each animal. This operation (recording of the spectra) is repeated 9 times (total

[3] = tested on: tremogenic effect of oxotremorine; experiment: Potentiation of the cholinergic effects of oxotremorine: tremogenic (central) effect; format: in vivo, male NMRI mice; conditions: mice
Procedure: (§1) 1. Potentiation of the cholinergic effects of oxotremorine. […] The degree of peripheral cholinergic activation is measured by the salivatory effect quantified by the following rating system:
The degree of central cholinergic activation is measured by the tremogenic effect quantified by the following rating system:
score 1: slight and periodic occasional tremors;
score 2: moderate and slight tremors often repeated;
score 4: accentuated tremors, but interrupted by periods of calm:
score 6: very accentuated and almost continuous tremors.
(§2) Male NMRI mice (20 to 25 g) are divided into four groups of five animals, that is to say: one control group and three treated groups. The compound to be tested is administered intraperitoneally (to the three treated groups) 20 minutes before the administration of the oxotremorine, at a dose which differs for each of the treated groups. […] For each of the groups, the individual scores recorded at each observation period are summed; this enables to plot a curve showing the sum of the scores as a function of time, which is characteristic for each group.
(§3) The mean values of the areas under the curves obtained for each of the treated groups are compared with the mean value of the area under the curve corresponding to the control group and is subjected to statistical analysis by the Mann-Whitney method. From this comparison, a "minimum active dose" can be determined. […]

[4] = tested on: salivatory effect of oxotremorine; experiment: Potentiation of the cholinergic effects of oxotremorine: salivatory (peripheral) effect; format: in vivo, male NMRI mice; conditions: mice
Procedure: as §1
score 1: a little saliva is found around the teeth:
score 2: the saliva forms a narrower band around the mouth;
score 4: the saliva wets a surface underneath the chin;
score 6: the saliva runs from the mouth, for example onto the forelegs.
The intermediate scores are not used, and the saliva is wiped away after each observation.
as §2, §3

[5] = tested on: amnesia induced by scopolamine; experiment: Multiple-trial passive avoidance: mnemic retention, amnesia induced by scopolamine; format: in vivo, male Sprague-Dawley rats; conditions: rats
Procedure: 4. Multiple-trial passive avoidance. The compounds of the present invention have been studied with the aim of
Columns 3 and 4 show the results obtained in the test used to evaluate the learning. The figures indicate the average number of trials needed for a control animal (group 1) or an animal treated (group 2) with the compound to learn to remain on the rubber mat for 180 seconds in order to avoid the electric shock. The results were analyzed by the Student test.

[6] = tested on: hyperactivity induced by scopolamine; experiment: Inhibition of hyperactivity induced by scopolamine; format: in vivo, male Sprague-Dawley rats; conditions: rats, administered more than 15 minutes before the measurements
[7] = Rattus norvegicus, ip; read-out: Inhibition (percentage of reduction in the increase in the intensity of the band from 6.4 to 9.6 Hz)
[8] = 20 minutes after administration at the minimum active dose

SMILES | Lethal dose (death of two animals out of three within 48 hours) ([1]; mice, intraperitoneal) [mg/kg] | inhibition [2, 7] [%] | further results
CCCc1nc(NCCO)nc(N2CCOCC2)n1 [Compound 1, 2-[(4-morpholino-6-propyl-1,3,5-triazin-2-yl)amino]-ethanol] | 802 | 52 | –
CCCc1nc(NC(CC)CO)nc(N2CCOCC2)n1 (stereo not drawn) [Compound 7] | – | 50 | Lethal dose (death of two animals out of three within 48 hours) ([1]; mouse, in vivo, ip): 886 mg/kg
CCCc1nc(N(C)CCO)nc(N2CCOCC2)n1 [Compound 9] | – | 53.3 | Lethal dose (death of two animals out of three within 48 hours) ([1]; mouse, in vivo, ip): 844 mg/kg
CCCc1nc(NN(C)C)nc(N2CCOCC2)n1 [Compound 20, 2-(2,2-dimethylhydrazino)-4-morpholino-6-propyl-1,3,5-triazine] | 799 | 66.7 | –
CCCc1nc(NC(C)=O)nc(N2CCOCC2)n1 [Compound 21a, N-(4-Morpholino-6-propyl-1,3,5-triazin-2-yl)-acetamide] | 996 | 100 | –
CCCc1nc(NC(=O)c2ccccc2)nc(N2CCOCC2)n1.Cl [Compound 22, N-(4-morpholino-6-propyl-1,3,5-triazin-2-yl)-benzamide hydrochloride] | 1091 | 66.7 | –
CCCc1nc(N2CCOCC2)nc(N(C)C(C)=O)n1 [Compound 25a] | – | 46.7 | Lethal dose (death of two animals out of three within 48 hours) ([1]; mouse, in vivo, ip): 838 mg/kg
CCCc1nc(N2CCOCC2)nc(N(C)C(=O)C(C)C)n1 [Compound 26] | – | 55.6 | Lethal dose (death of two animals out of three within 48 hours) ([1]; mouse, in vivo, ip): 922 mg/kg
CCCc1nc(N2CCOCC2)nc(N(C)C(=O)c2ccccc2)n1.Cl [Compound 27, N-methyl-N-(4-morpholino-6-propyl-1,3,5-triazin-2-yl)-benzamide hydrochloride] | 1133 | 93.8 | –
CCCc1nc(N2CCOCC2)nc(N(C)C(=O)c2ccc(C)cc2)n1 [Compound 34] | 1174 | – | –
CCCc1nc(N2CCOCC2)nc(N(C)C(=O)c2ccc(OC)c(OC)c2)n1 [Compound 35] | 401 | – | –
CCCc1nc(NC(=O)c2ccc(C)c(C)c2)nc(N2CCOCC2)n1 [Compound 36] | 1174 | – | –
CCCc1nc(NCCOC(C)=O)nc(N2CCOCC2)n1 [Compound 37, 2-[[2-(acetoxy)ethyl]amino]-4-morpholino-6-propyl-1,3,5-triazine] | 928 | 53.3 | –
CCCc1nc(NCCOC(=O)C(C)C)nc(N2CCOCC2)n1 [Compound 38] | > 1012 | – | –
CCCc1nc(NCCOC(=O)c2ccccc2)nc(N2CCOCC2)n1 [Compound 39] | > 1114 | – | –
CCCc1nc(NCCOC(=O)Cc2ccccc2)nc(N2CCOCC2)n1 [Compound 40] | 1157 | – | –
CCCc1nc(NC(=O)N(C)C)nc(N2CCOCC2)n1 [Compound 41, N,N-Dimethyl-N'-(4-morpholino-6-propyl-1,3.5-triazin-2-yl)-urea] | 294 | – | –
CCCc1nc(NCCOC(N)=O)nc(N2CCOCC2)n1 [Compound 42, 2-[[2-[(Aminocarbonyl)oxy]ethyl]amino]-4-morpholino-6-propyl-1,3,5-triazine] | > 931 | – | –
CCCc1nc(N2CCOCC2)nc(N(CCOC(C)=O)C(C)=O)n1 [Compound 43, N-[2-(Acetoxy)ethyl]-N-(4-morpholino-6-propyl-1,3,5-triazin-2-yl)-acetamide] | 351 | 77.8 | –
COC(=O)C1=CCCN(C)C1 [arecoline, methyl 1,2,5,6-tetrahydro-1-methyl-3-pyridinecarboxylate] | – | – | potentiation of the tremogenic effect of oxotremorine 20 minutes after administration [3, 8]: gives no potentiation; potentiation of the salivatory effect of oxotremorine 20 minutes after administration [4, 8]: gives no potentiation
O=C1CCCN1CC#CCN1CCCC1 [oxotremorine] | – | – | minimal effective dose ([3]; Mus musculus, ip, intraperitoneal, read-out: minimum dose of oxotremorine which causes tremors): ~0.05 mg/kg; minimal effective dose ([4]; Mus musculus, ip, intraperitoneal, read-out: minimum dose of oxotremorine which causes salivation): ~0.05 mg/kg
CNC(=O)Oc1ccc2c(c1)[C@]1(C)CCN(C)[C@@H]1N2C [physostigmine, reference compound] | – | – | influence on the amnesing effect of scopolamine ([5]; i.p., group 4 vs. group 3): favorable action against the amnesing effect of scopolamine, similar to that of the compounds of the invention; inhibitory activity on scopolamine hyperactivity, administered more than 15 minutes before measurements [6]: inactive; inhibition ([2]; Rattus norvegicus, ip, read-out: Inhibition (percentage of reduction in the increase in the intensity of the band from 6.4 to 9.6 Hz)): 76.8%; inhibition of the effects which scopolamine exerts on the electroencephalogram ([2]; rats, i.p.): inhibit the effects which scopolamine exerts on the electroencephalogram
CN1[C@@H]2C[C@@H](OC(=O)[C@H](CO)c3ccccc3)C[C@H]1[C@@H]1O[C@@H]12 [scopolamine] | – | – | amnesing effect ([5]; group 3, scopolamine alone): very pronounced
